Drawing on US8829185B2 (Bayer HealthCare LLC, priority 2005, dated 2014), this text covers IC50 for 23 molecules.

The target in this test is T1, FGFR1-GST (Homo sapiens, UniProt P11362).
T1 construct: GST; made in house
Description: FGFR-1 TR-FRET biochemical assay. The method, then: FGFR-1 TR-FRET Biochemical Assay
The FGFR-1 Assay was performed on half well 96-well opaque plates (Costar 3915) in a LANCE format. LANCE is a homogenous time resolved fluormetry based application available through Perkin Elmer. For this assay, 50 uL reactions were set up using: 0.6 uM ATP (Sigma), 25 nM poly GT-biotin (CIS BIO International), 2 nM Eu-labelled phospho-Tyr Ab (PY20 PerkinElmer), 10 nM Streptavidin-APC (Perkin Elmer), 5 nM FGFR1-GST (generated by DRT, Bayer Healthcare), 1% DMSO, 50 mM HEPES pH 7.5, 10 mM MgCl2, 0.1 mM EDTA, 0.015% Brij, 0.1 mg/ml BSA, 0.1% B-mercaptoethanol. All reactions were initiated with the addition of enzyme and were left to incubate for one hour at room temperature. Time-resolved fluorescence was then read on a Perkin Elmer VictorV Multilabel counter. The reading protocol uses an excitation wavelength at 340 nm and emission reads at both 615 and 665 nm. Signal was calculated as a ratio: (Fluorescence at 665 nm/Fluorescence at […])*10000 for each well. The background control used for this assay is the signal produced with all assay components excluding ATP. For IC50 generation, compounds were added prior to the enzyme initiation. A 50-fold stock plate was made with compounds serially diluted 1:5 in a 50% DMSO/50% dH2O solution. A 1 μL addition of the stock to the assay wells gave final compound concentrations ranging from 10 μM −0.128 nM in 1% DMSO. The data were expressed as percent inhibition: % inhibition=100−((Signal with inhibitor-background)/(Signal without inhibitor−background))*100.
(In general: In TR-FRET formats the signal depends on donor and acceptor labels being close together.)

T1 sequence (P11362 22-822): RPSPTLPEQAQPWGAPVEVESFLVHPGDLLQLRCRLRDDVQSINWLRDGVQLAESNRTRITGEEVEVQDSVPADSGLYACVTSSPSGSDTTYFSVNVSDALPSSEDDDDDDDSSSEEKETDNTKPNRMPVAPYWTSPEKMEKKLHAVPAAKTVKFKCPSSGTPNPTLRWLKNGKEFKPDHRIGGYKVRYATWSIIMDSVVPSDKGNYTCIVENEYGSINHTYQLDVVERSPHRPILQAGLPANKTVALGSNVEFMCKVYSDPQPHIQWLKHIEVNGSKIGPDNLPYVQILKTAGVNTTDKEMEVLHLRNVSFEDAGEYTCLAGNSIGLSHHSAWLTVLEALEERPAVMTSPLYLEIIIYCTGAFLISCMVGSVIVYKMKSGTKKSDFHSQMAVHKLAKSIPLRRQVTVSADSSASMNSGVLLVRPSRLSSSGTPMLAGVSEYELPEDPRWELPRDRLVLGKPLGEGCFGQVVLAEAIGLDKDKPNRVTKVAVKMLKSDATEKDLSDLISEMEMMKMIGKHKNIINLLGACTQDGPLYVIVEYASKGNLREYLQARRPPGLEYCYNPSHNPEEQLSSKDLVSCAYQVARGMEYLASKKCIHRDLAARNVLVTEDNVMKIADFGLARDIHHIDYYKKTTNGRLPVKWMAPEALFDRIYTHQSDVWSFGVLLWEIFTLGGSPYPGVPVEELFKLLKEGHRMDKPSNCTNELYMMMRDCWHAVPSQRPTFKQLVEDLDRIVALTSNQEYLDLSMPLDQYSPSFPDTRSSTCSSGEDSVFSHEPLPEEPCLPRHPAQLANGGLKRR

By IC50 is commonly meant the concentration that inhibits the measured activity by half. Read a high IC50 as weaker potency in that assay. The molecule `COCc1c(-c2ccc(NC(=O)Nc3cccc(C(F)(F)F)n3)cc2)c2c(N)ncnn2c1CN1CCOCC1` [Example 50] showed an IC50 (bounds given in nM) greater than 100 nM and an IC50 (upper bound in μM) of less than 1000 nM. Under “bounds given in nM”, `N#CCc1c(-c2ccc(NC(=O)Nc3cc(C(F)(F)F)ccc3F)c(F)c2)c2c(N)ncnn2c1CN1CCS(=O)(=O)CC1` [Example 79, N-(4-{4-amino-6-(cyanomethyl)-7-[(1,1-dioxidothiomorpholin-4-yl)methyl]pyrrolo[2,1-f][1,2,4]triazin-5-yl}-2-fluorophenyl)-N′-[2-fluoro-5-(trifluoromethyl)phenyl]urea] returned an IC50 of less than 10 nM.

In turn, `CC(=O)c1c(-c2ccc(NC(=O)Nc3ccc(OC(F)(F)F)cc3)c(F)c2)c2c(N)ncnn2c1CN1CCOCC1` [Example 59, N-4-[6-acetyl-4-amino-7-(morpholin-4-ylmethyl)pyrrolo[2,1-f][1,2,4]triazin-5-yl]-2-fluorophenyl-N′-[4-(trifluoromethoxy)phenyl]urea] had an IC50 (bounds given in nM) of 10 to 100 nM.

Regarding `N#CCc1c(-c2ccc(NC(=O)Nc3cc(C(F)(F)F)ccc3F)cc2)c2c(N)ncnn2c1CN1CCNC(=O)C1` [Example 70, N-(4-{4-amino-6-(cyanomethyl)-7-[(3-oxopiperazin-1-yl)methyl]pyrrolo[2,1-f][1,2,4]triazin-5-yl}phenyl)-N′-[2-fluoro-5-(trifluoromethyl)phenyl]urea], the IC50 (bounds given in nM) is less than 10 nM. On the same count and under the same terms, the same measure for `COCc1c(-c2ccc(NC(=O)Nc3cc(C(F)(F)F)ccc3F)cc2)c2c(N)ncnn2c1CN1CCCC1` [Example 14, N-{4-[4-amino-6-(methoxymethyl)-7-(pyrrolidin-1-ylmethyl)pyrrolo[2,1-f][1,2,4]triazin-5-yl]phenyl}-N′-[2-fluoro-5-(trifluoromethyl)phenyl]urea]: 10 to 100 nM. `Nc1ncnn2c(CN3CCOCC3)c(CO)c(-c3ccc(NC(=O)Nc4cc(C(F)(F)F)ccn4)c(F)c3)c12` [Example 114, N-{4-[4-amino-6-(hydroxymethyl)-7-(morpholin-4-ylmethyl)pyrrolo[2,1-f][1,2,4]triazin-5-yl]-2-fluorophenyl}-N′-[4-(trifluoromethyl)pyridin-2-yl]urea] returned an IC50 (bounds given in nM) of 10 to 100 nM. Same read-out and setting: the same measure for `Nc1ncnn2c(CN3CCOCC3)c(/C=N/O)c(-c3ccc(NC(=O)Nc4cc(C(F)(F)F)ccc4F)cc3)c12` [Example 102, N-4-[4-amino-6-[(E)-(hydroxyimino)methyl]-7-(morpholin-4-ylmethyl)pyrrolo[2,1-f][1,2,4]triazin-5-yl]phenyl-N′-[2-fluoro-5-(trifluoromethyl)phenyl]urea]: less than 10 nM.

In the case of `COCCN(C)Cc1c(-c2ccc(NC(=O)Nc3cc(C(F)(F)F)ccc3F)cc2)c2c(N)ncnn2c1CN1CCOCC1` [Example 110, N-4-[4-amino-6-[(2-methoxyethyl)(methyl)-amino]methyl-7-(morpholin-4-ylmethyl)pyrrolo[2,1-f][1,2,4]triazin-5-yl]phenyl-N′-[2-fluoro-5-(trifluoromethyl)phenyl]urea], the IC50 was greater than 100 nM (bounds given in nM) and less than 1000 nM (upper bound in μM).

As for `COCc1c(-c2ccc(NC(=O)Nc3cc(C(F)(F)F)ccc3F)c(F)c2)c2c(N)ncnn2c1C1CCNCC1` [Example 149, 1-{4-[4-amino-6-(methoxymethyl)-7-piperidin-4-ylpyrrolo[2,1-f][1,2,4]triazin-5-yl]-2-fluorophenyl}-3-[2-fluoro-5-(trifluoro-methyl)phenyl]urea], the IC50 (bounds given in nM) is 10 to 100 nM. The same measure, in the same setting: with `Nc1ncnn2c(CN3CCOCC3)c(Cl)c(-c3ccc(NC(=O)Nc4cc(C(F)(F)F)ccc4F)c(F)c3)c12` [Example 152, N-{4-[4-amino-6-chloro-7-(morpholin-4-ylmethyl)pyrrolo[2,1-f][1,2,4]triazin-5-yl]-2-fluorophenyl}-N′-[2-fluoro-5-(trifluoromethyl)-phenyl]urea] the figure was 10 to 100 nM; with `COCc1c(-c2ccc(NC(=O)Nc3cc(C)ccc3F)c(F)c2)c2c(N)ncnn2c1CN1CCCOCC1` [Example 140, N-{4-[4-amino-6-(methoxymethyl)-7-(1,4-oxazepan-4-ylmethyl)-pyrrolo[2,1-f][1,2,4]triazin-5-yl]-2-fluorophenyl}-N′-(2-fluoro-5-methylphenyl)urea], 10 to 100 nM; with `COCc1c(-c2ccc(NC(=O)Nc3cc(C(F)(F)F)ccc3F)c(F)c2)c2c(N)ncnn2c1CN1CCOCC1` [Example 45, N-{4-[4-amino-6-(methoxymethyl)-7-(morpholin-4-ylmethyl)pyrrolo[2,1-f][1,2,4]triazin-5-yl]-2-fluorophenyl}-N′-[2-fluoro-5-(trifluoromethyl)phenyl]urea], less than 10 nM. For `CN1CCN(Cc2c(CC#N)c(-c3ccc(NC(=O)Nc4cc(C(F)(F)F)ccc4F)cc3)c3c(N)ncnn23)CC1` [Example 74, N-(4-{4-amino-6-(cyanomethyl)-7-[(4-methylpiperazin-1-yl)methyl]pyrrolo[2,1-f][1,2,4]triazin-5-yl}phenyl)-N′-[2-fluoro-5-(trifluoromethyl)phenyl]urea], under “bounds given in nM”, the IC50 was in the range of 10 to 100 nM. For `N#Cc1c(C(=O)O)c(-c2ccc(NC(=O)Nc3cc(C(F)(F)F)ccn3)cc2)c2c(N)ncnn12` [Example 8, 4-amino-7-cyano-5-{4-[({[4-(trifluoromethyl)pyridin-2-yl]amino}carbonyl)amino]phenyl}pyrrolo[2,1-f][1,2,4]triazine-6-carboxylic acid], the IC50 is greater than 100 nM (bounds given in nM) and less than 1000 nM (upper bound in μM). As to `CCOC(=O)c1c(-c2ccc(NC(=O)Nc3cc(C(F)(F)F)ccn3)cc2)c2c(N)ncnn2c1-c1cccc(F)c1` [Example 1, Ethyl 4-amino-7-(3-fluorophenyl)-5-{4-[({[4-(trifluoromethyl)pyridin-2-yl]amino}carbonyl)amino]phenyl}-pyrrolo[2,1-f][1,2,4]triazine-6-carboxylate], the IC50 (bounds given in nM) was in the range of 10 to 100 nM. Consider `Nc1ncnn2c(CN3CCOCC3)c(C(F)F)c(-c3ccc(NC(=O)Nc4cc(C(F)(F)F)ccc4F)c(F)c3)c12` [Example 99, N-{4-[4-amino-6-(difluoromethyl)-7-(morpholin-4-ylmethyl)-pyrrolo[2,1-f][1,2,4]triazin-5-yl]-2-fluorophenyl}-N′-[2-fluoro-5-(trifluoromethyl)phenyl]urea], for which the IC50 (bounds given in nM) was 10 to 100 nM. On the same count and under the same terms, the same measure for `CCOC(=O)c1c(-c2ccc(NC(=O)Nc3cc(C(F)(F)F)ccn3)cc2)c2c(N)ncnn2c1-c1ccc(OC)cc1` [Example 4, ethyl 4-amino-7-(4-methoxyphenyl)-5-{4-[({[4-(trifluoromethyl)pyridin-2-yl]amino}carbonyl)amino]-phenyl}pyrrolo[2,1-f][1,2,4]triazine-6-carboxylate]: 10 to 100 nM; for `CC(O)c1c(-c2ccc(NC(=O)Nc3cc(C(F)(F)F)ccc3F)cc2)c2c(N)ncnn2c1CN1CCOCC1` (centres unmarked) [Example 104, N-4-[4-amino-6-(1-hydroxyethyl)-7-(morpholin-4-ylmethyl)-pyrrolo[2,1-f][1,2,4]triazin-5-yl]phenyl-N′-[2-fluoro-5-(trifluoromethyl)-phenyl]urea]: 10 to 100 nM. In turn, `Nc1ncnn2c(CN3CCOCC3)c(-c3cnco3)c(-c3ccc(NC(=O)Nc4cc(C(F)(F)F)ccn4)cc3)c12` [Example 27, N-4-[4-amino-7-(morpholin-4-ylmethyl)-6-(1,3-oxazol-5-yl)pyrrolo[2,1-f][1,2,4]triazin-5-yl]phenyl-N′-[4-(trifluoromethyl)pyridin-2-yl]urea] gave an IC50 (bounds given in nM) of less than 10 nM. Take `Nc1ncnn2c(CN3CCOCC3)c(-c3cnco3)c(-c3ccc(NC(=O)Nc4cc(F)cc(C(F)(F)F)c4)cc3)c12` [Example 29, N-4-[4-amino-7-(morpholin-4-ylmethyl)-6-(1,3-oxazol-5-yl)pyrrolo[2,1-f][1,2,4]triazin-5-yl]phenyl-N′-[3-fluoro-5-(trifluoromethyl)phenyl]urea]: the IC50 (bounds given in nM) is less than 10 nM. The same measure, in the same setting: the same measure for `COCc1c(-c2ccc(NC(=O)Nc3cc(C(F)(F)F)ccc3F)c(F)c2)c2c(N)ncnn2c1CN1CCOC(CO)C1` (centres unmarked) [Example 47, N-{4-[4-amino-7-{[2-(hydroxymethyl)morpholin-4-yl]methyl}-6-(methoxymethyl)pyrrolo[2,1-f][1,2,4]triazin-5-yl]-2-fluorophenyl}-N′-[2-fluoro-5-(trifluoromethyl)-phenyl]urea]: 10 to 100 nM; for `COCc1c(-c2ccc(NC(=O)Nc3cc(C(F)(F)F)ccn3)cc2)c2c(N)ncnn2c1CN1CCOCC1` [Example 35, N-4-[4-amino-6-(methoxymethyl)-7-(morpholin-4-ylmethyl)pyrrolo[2,1-f][1,2,4]triazin-5-yl]phenyl-N′-[4-(trifluoromethyl)pyridin-2-yl]urea]: 10 to 100 nM. Same read-out and setting: the same measure for `COCc1c(-c2ccc(NC(=O)Nc3cc(C(F)(F)F)ccc3F)cc2)c2c(N)ncnn2c1CNC1CC1` [Example 16, N-{4-[4-amino-7-[(cyclopropylamino)methyl]-6-(methoxymethyl)pyrrolo[2,1-f][1,2,4]triazin-5-yl]phenyl}-N′-[2-fluoro-5-(trifluoromethyl)phenyl]urea]: 10 to 100 nM.
